# Experimental data as given in ChEMBL document CHEMBL3217756, “Biological and computational evaluation of an oxadiazole derivative (MD77) as a new lead for direct STAT3 inhibitors” (Medchemcomm, 2012).
# Key:
# [1] = target: Signal transducer and activator of transcription 1-alpha/beta (Homo sapiens) (UniProt P42224); experiment: Inhibition of SH2 domain of STAT1 (unknown origin) using FITC-GpYDKPHVL as substrate at 30 uM preincubated for 15 mins before substrate addition measured after 90 mins by alphascreen based assay
# [2] = Cytotoxicity against human OVCAR5 cells after 48 hrs by sulforhodamine B assay; type: functional; settings: OVCAR-5, 48 h
# SN12C = experiment: Cytotoxicity against human SN12C cells after 48 hrs by sulforhodamine B assay; type: functional
# HOP-92 = experiment: Cytotoxicity against human HOP92 cells after 48 hrs by sulforhodamine B assay; type: functional; settings: HOP-92, 48 h
# MDA-MB-468 = experiment: Cytotoxicity against human MDA-MB-468 cells after 48 hrs by sulforhodamine B assay; type: functional; settings: MDA-MB-468, 48 h
# T47D = experiment: Cytotoxicity against human T47D cells after 48 hrs by sulforhodamine B assay; type: functional
# [3] = target: T1, Signal transducer and activator of transcription 3 (Homo sapiens, UniProt P40763); experiment: Inhibition of SH2 domain of STAT3 (unknown origin) using (FITC)-GpYLPQTV as substrate at 30 uM preincubated for 15 mins before substrate addition measured after 90 mins by alphascreen based assay
# HCT-116 = experiment: Cytotoxicity against human HCT116 cells after 48 hrs by sulforhodamine B assay; type: functional; settings: HCT-116, 48 h
# [4] = Cytotoxicity against human OVCAR4 cells after 48 hrs by sulforhodamine B assay; type: functional; settings: OVCAR-4, 48 h
# 786-0 = experiment: Cytotoxicity against human 786-0 cells after 48 hrs by sulforhodamine B assay; type: functional; settings: 786-0, 48 h
# M14 = experiment: Cytotoxicity against human M14 cells after 48 hrs by sulforhodamine B assay; type: functional; settings: M14, 48 h
# [5] = target: T1, Signal transducer and activator of transcription 3; experiment: Inhibition of STAT3 in human HCT116 cells at 5 uM after 24 hrs by dual-light luciferase reporter gene assay; type: cell-based; settings: HCT-116
# [6] = read-out: LC50 (the source's name)
# [7] = read-out: pLC50 (the source's name) (converted)
# T1 sequence (P40763 whole entry, the tested form may be a part): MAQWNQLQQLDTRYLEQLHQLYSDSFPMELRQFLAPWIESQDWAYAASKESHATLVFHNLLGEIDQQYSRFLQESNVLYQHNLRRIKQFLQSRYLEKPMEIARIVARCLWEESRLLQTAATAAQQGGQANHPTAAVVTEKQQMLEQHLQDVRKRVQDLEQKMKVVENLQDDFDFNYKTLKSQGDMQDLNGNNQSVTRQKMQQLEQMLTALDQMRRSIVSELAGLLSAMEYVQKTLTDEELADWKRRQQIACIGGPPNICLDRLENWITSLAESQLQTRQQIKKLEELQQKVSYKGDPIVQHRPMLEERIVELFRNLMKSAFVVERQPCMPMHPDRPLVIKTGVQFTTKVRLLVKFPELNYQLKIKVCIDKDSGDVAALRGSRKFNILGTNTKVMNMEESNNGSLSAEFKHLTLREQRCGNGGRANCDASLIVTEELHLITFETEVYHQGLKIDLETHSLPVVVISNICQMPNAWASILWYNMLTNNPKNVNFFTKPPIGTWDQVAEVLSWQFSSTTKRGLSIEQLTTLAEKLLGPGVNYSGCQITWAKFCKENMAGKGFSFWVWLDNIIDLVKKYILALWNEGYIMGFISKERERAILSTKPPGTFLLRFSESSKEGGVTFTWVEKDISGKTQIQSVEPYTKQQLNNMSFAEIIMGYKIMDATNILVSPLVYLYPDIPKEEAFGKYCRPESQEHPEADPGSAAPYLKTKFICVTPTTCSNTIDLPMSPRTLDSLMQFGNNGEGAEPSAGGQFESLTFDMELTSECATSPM
# Signal transducer and activator of transcription 1-alpha/beta (Homo sapiens), sequence (P42224 whole entry, the tested form may be a part): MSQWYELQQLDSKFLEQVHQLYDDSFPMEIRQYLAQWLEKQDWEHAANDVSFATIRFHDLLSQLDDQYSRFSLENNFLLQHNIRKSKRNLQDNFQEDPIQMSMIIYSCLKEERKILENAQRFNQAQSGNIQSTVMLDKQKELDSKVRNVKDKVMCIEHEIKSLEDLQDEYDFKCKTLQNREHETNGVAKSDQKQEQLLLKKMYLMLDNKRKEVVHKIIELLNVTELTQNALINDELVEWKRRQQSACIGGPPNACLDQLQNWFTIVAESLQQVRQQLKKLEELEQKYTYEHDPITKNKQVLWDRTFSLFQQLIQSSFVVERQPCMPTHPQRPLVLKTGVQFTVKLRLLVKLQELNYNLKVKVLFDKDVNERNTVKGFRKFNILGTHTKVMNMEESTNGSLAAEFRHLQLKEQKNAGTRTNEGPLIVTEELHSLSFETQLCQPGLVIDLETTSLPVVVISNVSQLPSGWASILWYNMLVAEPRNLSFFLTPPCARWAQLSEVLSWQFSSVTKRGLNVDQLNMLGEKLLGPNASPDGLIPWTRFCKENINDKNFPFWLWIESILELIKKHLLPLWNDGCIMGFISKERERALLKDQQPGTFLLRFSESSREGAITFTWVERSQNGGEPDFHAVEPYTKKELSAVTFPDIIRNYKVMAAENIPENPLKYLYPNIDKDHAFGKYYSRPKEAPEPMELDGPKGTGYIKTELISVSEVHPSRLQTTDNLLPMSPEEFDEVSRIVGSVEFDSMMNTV
compound,measurement,setting,value
O=C(Nc1nonc1-c1ccc(Cl)cc1)c1ccc(C(F)(F)F)cc1,inhibition,[1],94.6%
same,GI50,[2]; read-out: GI50,3.98 µM
same,LC50,[2]; read-out: LC50,> 100 µM
same,TGI,[2]; read-out: TGI,96.3 µM
same,GI50,[2]; read-out: pGI50 (converted),3.98 µM
same,LC50,[2]; read-out: pLC50 (converted),> 100 µM
same,TGI,[2]; read-out: pTGI (converted),95.5 µM
same,GI50,SN12C; read-out: GI50,2870 nM
same,CC50,SN12C; [6],> 100 µM
same,TGI,SN12C; read-out: TGI,> 100 µM
same,GI50,SN12C; read-out: pGI50 (converted),2880 nM
same,CC50,SN12C; [7],> 100 µM
same,TGI,SN12C; read-out: pTGI,> 100 µM
same,GI50,HOP-92; read-out: GI50,668 nM
same,CC50,HOP-92; [6],> 100 µM
same,TGI,HOP-92; read-out: TGI,3.96 µM
same,GI50,HOP-92; read-out: pGI50 (converted),661 nM
same,CC50,HOP-92; [7],> 100 µM
same,TGI,HOP-92; read-out: pTGI (converted),3.98 µM
same,GI50,MDA-MB-468; read-out: GI50,3.36 µM
same,LC50,MDA-MB-468; read-out: LC50,> 100 µM
same,TGI,MDA-MB-468; read-out: TGI,27 µM
same,GI50,MDA-MB-468; read-out: pGI50 (converted),3.39 µM
same,LC50,MDA-MB-468; read-out: pLC50 (converted),> 100 µM
same,TGI,MDA-MB-468; read-out: pTGI (converted),26.9 µM
same,GI50,T47D; read-out: GI50,3.13 µM
same,CC50,T47D; [6],> 100 µM
same,TGI,T47D; read-out: TGI,> 100 µM
same,GI50,T47D; read-out: pGI50 (converted),3.16 µM
same,CC50,T47D; [7],> 100 µM
same,TGI,T47D; read-out: pTGI,> 100 µM
same,inhibition,[3],72%
same,GI50,HCT-116; read-out: GI50,2170 nM
same,CC50,HCT-116; [6],> 100 µM
same,GI50,HCT-116; read-out: pGI50 (converted),2190 nM
same,CC50,HCT-116; [7],> 100 µM
same,GI50,[4]; read-out: GI50,1830 nM
same,TGI,[4]; read-out: TGI,4.21 µM
same,GI50,[4]; read-out: pGI50 (converted),1820 nM
same,TGI,[4]; read-out: pTGI (converted),4.17 µM
same,GI50,786-0; read-out: GI50,1980 nM
same,LC50,786-0; read-out: LC50,> 100 µM
same,TGI,786-0; read-out: TGI,5.19 µM
same,GI50,786-0; read-out: pGI50 (converted),2000 nM
same,LC50,786-0; read-out: pLC50 (converted),> 100 µM
same,TGI,786-0; read-out: pTGI,5.25 µM
same,GI50,M14; read-out: GI50,2040 nM
same,CC50,M14; [6],> 100 µM
same,TGI,M14; read-out: TGI,> 100 µM
same,GI50,M14; read-out: pGI50 (converted),2040 nM
same,CC50,M14; [7],> 100 µM
same,TGI,M14; read-out: pTGI,> 100 µM
same,inhibition,[5],20%
